According to PMC4880925 (Scientific Reports, 2016):

Tests used:
CYP144A1 [1] = biological target: T1, CYP144A1 (Mycobacterium tuberculosis, UniProt P9WPL1); type: binding
T1 construct: gene cyp144
Target sequence in this assay (P9WPL1 whole entry): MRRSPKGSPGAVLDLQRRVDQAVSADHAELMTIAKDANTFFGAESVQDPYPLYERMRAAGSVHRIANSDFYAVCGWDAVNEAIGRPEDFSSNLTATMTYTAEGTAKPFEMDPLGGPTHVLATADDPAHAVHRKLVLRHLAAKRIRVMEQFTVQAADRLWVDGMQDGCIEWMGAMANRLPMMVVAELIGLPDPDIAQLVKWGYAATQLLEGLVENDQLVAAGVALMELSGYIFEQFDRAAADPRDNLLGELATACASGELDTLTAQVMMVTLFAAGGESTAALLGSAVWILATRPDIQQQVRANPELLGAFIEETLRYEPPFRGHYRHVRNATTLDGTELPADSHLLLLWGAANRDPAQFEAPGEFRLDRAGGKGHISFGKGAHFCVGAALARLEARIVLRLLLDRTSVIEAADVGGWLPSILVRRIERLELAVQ

CYP144A1 [2] = biological target: T1, CYP144A1; assay: […]; supported by EPR and DSC (Tm […] to […] °C); type: binding
Target sequence in this assay (P9WPL1 31-434): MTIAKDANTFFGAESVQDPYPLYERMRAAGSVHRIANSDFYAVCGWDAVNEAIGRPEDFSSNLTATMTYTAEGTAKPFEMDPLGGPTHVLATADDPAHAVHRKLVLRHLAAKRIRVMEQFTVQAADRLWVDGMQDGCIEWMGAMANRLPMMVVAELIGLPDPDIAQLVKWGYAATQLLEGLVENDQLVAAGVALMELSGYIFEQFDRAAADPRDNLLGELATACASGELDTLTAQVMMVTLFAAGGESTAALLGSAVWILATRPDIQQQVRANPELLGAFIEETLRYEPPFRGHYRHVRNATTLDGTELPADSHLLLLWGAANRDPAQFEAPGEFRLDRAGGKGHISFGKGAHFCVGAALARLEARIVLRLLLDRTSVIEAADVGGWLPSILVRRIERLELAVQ

Row | Structure (SMILES) | differential scanning calorimetry, Tm raised from 47 to 50 °C (CYP144A1 [1]) [°C] | Kd (CYP144A1 [2]) [nM]
1 | Clc1ccccc1C(c1ccccc1)(c1ccccc1)n1ccnc1 [clotrimazole] | 50 | –
2 | Clc1ccc(COC(Cn2ccnc2)c2ccc(Cl)cc2Cl)cc1 (centres unmarked) [econazole] | – | 720 ± 180
